# Measured values taken from publication PMC10803328 (Scientific Reports, 2024).
# “And” between values parts separate entries of the source, which are not always exact repeats. Equal values may be shown once. “Also recorded” adds a separate entry of the source.
# Legend:
# [1] = Plasma free fraction, monkey plasma; format: in vitro ADME, rhesus monkey; conditions: baseline
# Experimental: In vitro stability was calculated by dividing the relative composition of the blood or brain homogenate determined with radio-HPLC by the initial radiochemical purity of the radioligand. […] The mixture was incubated at room temperature for 10 min and then processed exactly as described previously. The ultrafiltration components that contained high radioactivity were allowed time for radioactivity decay to within the optimal range of the γ-counter before they were counted again.
# [2] = PET imaging of brain in wild-type rats; format: in vivo, rat; conditions: i.v.
# Experimental: (§1) All PET imaging studies were performed with a Mediso LFER 150 preclinical scanner (nanoScan PET/CT). Brain and brain region radioactivity uptake was expressed by standardized uptake value (SUV) which normalizes for injected radioactivity and monkey body weight, as follows: SUV = [(% injected dose per g tissue) × body weight in g]/100.
# Animals were maintained under anesthesia with 1.5% isoflurane throughout the scan. Radioligand was injected intravenously via a penile vein catheter followed by PET imaging for 90 min. Brain uptake was expressed as standardized uptake value (SUV, concentration normalized by injected activity and body weight) and compared between the wild-type and self-blocked conditions.
# [3] = system: PSAM^4-GlyR; experiment: PET imaging and arterial plasma radiometabolite analysis in monkey transduced with PSAM^4-GlyR in the left amygdala; format: in vivo, rhesus monkey
# Experimental: All studies were conducted in accordance with “Animal Research: Reporting of In Vivo Experiments” guidelines as well as Guidelines for the Care and Use of Laboratory Animals, 8th Edition, and were approved by the National Institute of Mental Health Animal Care and Use Committee. A lentivirus carrying an PSAM^4 expressed under a human synapsin promoter (Lenti-hSyn-PSAM^4-GlyR) was injected into the left amygdala of a single rhesus macaque (11-year-old male). 14 × 20 μL of virus was injected at 1.0 μL/min speed. The virus titer was measured at 1 × 10^9 i.u./mL. The surgery was performed under aseptic conditions in a fully equipped operating suite.
# as §1
# Two male rhesus monkeys (macaca mulatta; 10.0 and 8.6 kg) underwent PET scanning. Each monkey was initially immobilized with ketamine (10 mg/kg, i.m.) and then maintained under anesthesia with 1.5% isoflurane. For each monkey, a baseline scan was performed for 120 min. […] Electrocardiogram, body temperature, heart, and respiration rates were monitored throughout the scans.
# Total radioactivity concentrations in sampled arterial whole blood and plasma were measured in a γ-counter throughout the 90-min scanning period.
# PET images were reconstructed using Fourier rebinding plus two-dimensional filtered back-projection with attenuation and scatter correction. Images were co-registered to a standardized monkey MRI template using the FMRIB Software Library (FSL; Oxford, UK). Thirty-four predefined brain regions of interest from the template were applied to the co-registered PET image to obtain regional, decay-corrected, time-activity curves.
smiles,measurement,setting,value
[11CH3]n1c(=O)cnc2cc3c(cc21)C1CNCC3C1 (centres unmarked) [[^11C]uPSEM792],fP (%),[1]; PSAM^4-GlyR monkey,89.42%
same,fP (%),[1]; non-transduced healthy monkey,89.29%
same,peak whole brain radioactivity uptake,[2],~ 0.6 SUV and < 0.6 SUV
same,time of peak whole brain radioactivity,[2],5 min
same,difference in uptake of radioactivity between left (PSAM^4-GlyR) and right amygdala,"[3]; PSAM^4-GlyR monkey, PET",No significant difference
same,evidence of PSAM^4-GlyR specific binding in left amygdala,"[3]; PSAM^4-GlyR monkey, PET, compartmental modeling",do not reveal any evidence of specific binding; also recorded: no evidence was obtained for PSAM^4-GlyR specific binding
same,time at which radiometabolites accounted for 50% of radioactivity in plasma,"[3]; male, rhesus monkey, in vivo",30 min
same,peak whole brain radioactivity uptake,"[3]; monkey transduced in the left amygdala with PSAM^4-GlyR, i.v., PET",~ 0.8 SUV
